Measured values taken from patent publication US8524691B2, “Phosphonated rifamycins and uses thereof for the prevention and treatment of bone and joint infections” (The Medicines Company, priority 2008, dated 2013).
In brackets after ≈: the same amount, converted by molar mass. Like-named read-outs stand apart in the source and are kept apart here.

Tests used:
Format in all cases: cell-based
[1] = system: S. aureus ATCC 13709^A, Novobiocin and Rifampicin resistant variant; experiment: Antibacterial susceptibility (MIC), NCCLS broth microdilution
Description: (§1) Susceptibility of S. aureus strains to the known antibiotics and synthesized compounds was determined by following the guidelines set by NCCLS (M26-A). Compounds were diluted two-fold serially in DMSO and transferred to cation-adjusted Mueller Hinton broth (CAMHB; Becton Dickinson). 50 μL of compounds diluted in CAMHB was mixed with 100 μL of bacteria diluted in CAMHB in 96-well microtiter plates. The final concentration of micro-organisms in the assay was 5×10^5c.f.u. per mL and the final concentration of DMSO in the assay was 1.25%. Assays were set up in duplicate and incubated at 37° C. for 18 h. The lowest concentration of compound that inhibited visible growth was reported as the minimum inhibitory concentration (MIC).

S. aureus ATCC 29213 = experiment: as above; details: CAMHB, 37° C., 18 h
Description: as §1

S. aureus ATCC 13709 [2] = experiment: microbe, parasite or virus in culture; details: for Minimum inhibitory concentration, S. aureus ATCC 13709: CAMHB, 37° C., 18 h; for Antibacterial activity (in words, from Table 1): S. aureus MIC
Description: as §1

S. aureus ATCC 13709 [3] = experiment: microbe, parasite or virus in culture; details: for Serum dependence of antibacterial activity (in words): MIC with versus without serum
Description: as §1
Susceptibility testing experiments were also carried out in the presence of serum. These experiments were carried out similar to the susceptibility testing with the following modifications. 75 μL of compounds diluted in CAMHB was mixed with 75 μL of bacteria diluted in 100% serum from any given source (commercial pooled mouse serum (MS) and human serum (HS), Equitech-Bio Inc.) or diluted in 8% purified human serum albumin (HSA) (Calbiochem). The final concentration of animal serum in the assay was 50% and the final concentration of purified human serum albumin in the assay was 4%; the concentrations of all other components were identical to those described for susceptibility testing.

Compound: CO[C@H]1/C=C/O[C@@]2(C)Oc3c(C)c(O)c4c(c3C2=O)C2=NC3(CCN(CC(C)C)CC3)NC2=C(NC(=O)/C(C)=C\C=C\[C@H](C)[C@H](OC(=O)CN(C)C(=O)NC(P(=O)(O)O)P(=O)(O)O)[C@@H](C)[C@@H](O)[C@@H](C)[C@H](OC(C)=O)[C@@H]1C)C4=O [Compound 140]
- Minimum inhibitory concentration, S. aureus ATCC 13709^A [1]: >128 µg/mL
- Minimum inhibitory concentration, S. aureus ATCC 29213 (S. aureus ATCC 29213): 16 µg/mL (≈ 14.1 µM)
- Minimum inhibitory concentration, S. aureus ATCC 13709 (S. aureus ATCC 13709 [2]): 16 µg/mL (≈ 14.1 µM)
- Minimum inhibitory concentration, ATCC 13709 + 50% Human Serum (S. aureus ATCC 13709 [3]; 50% Human Serum): 128 µg/mL
- Minimum inhibitory concentration, ATCC 13709 + 50% Mouse Serum (S. aureus ATCC 13709 [3]; 50% Mouse Serum): 32 µg/mL
- Minimum inhibitory concentration, ATCC 13709 + 50% Rat Serum (S. aureus ATCC 13709 [3]): 4 µg/mL
- Serum dependence of antibacterial activity (in words) (S. aureus ATCC 13709 [3]): weak antibacterial activity does not show a serum dependence

Compound: CCN(CC)CC.CO[C@H]1/C=C/O[C@@]2(C)Oc3c(C)c(O)c4c(c3C2=O)C2=NC3(CCN(CC(C)C)CC3)NC2=C(NC(=O)/C(C)=C\C=C\[C@H](C)[C@H](OC(=O)CNC(=O)Nc2ccc(CC(P(=O)(O)O)P(=O)(O)O)cc2)[C@@H](C)[C@@H](O)[C@@H](C)[C@H](OC(C)=O)[C@@H]1C)C4=O [Compound 142a]
- Minimum inhibitory concentration, S. aureus ATCC 13709^A [1]: >128 µg/mL
- Minimum inhibitory concentration, S. aureus ATCC 29213 (S. aureus ATCC 29213): 16 µg/mL
- Minimum inhibitory concentration, S. aureus ATCC 13709 (S. aureus ATCC 13709 [2]): 16 µg/mL
- Minimum inhibitory concentration, ATCC 13709 + 50% Human Serum (S. aureus ATCC 13709 [3]; 50% Human Serum): 128 µg/mL
- Minimum inhibitory concentration, ATCC 13709 + 50% Mouse Serum (S. aureus ATCC 13709 [3]; 50% Mouse Serum): 16 µg/mL
- Minimum inhibitory concentration, ATCC 13709 + 50% Rat Serum (S. aureus ATCC 13709 [3]): 2 µg/mL
- Serum dependence of antibacterial activity (in words) (S. aureus ATCC 13709 [3]): weak antibacterial activity does not show a serum dependence

Compound: CCN(CC)CC.CO[C@H]1/C=C/O[C@@]2(C)Oc3c(C)c(O)c4c(c3C2=O)C2=NC3(CCN(CC(C)C)CC3)NC2=C(NC(=O)/C(C)=C\C=C\[C@H](C)[C@H](OC(=O)CN(C)CC(=O)NC(P(=O)(O)O)P(=O)(O)O)[C@@H](C)[C@@H](O)[C@@H](C)[C@H](OC(C)=O)[C@@H]1C)C4=O [Compound 147]
- Minimum inhibitory concentration, S. aureus ATCC 13709^A [1]: >128 µg/mL
- Minimum inhibitory concentration, S. aureus ATCC 29213 (S. aureus ATCC 29213): 128 µg/mL
- Minimum inhibitory concentration, S. aureus ATCC 13709 (S. aureus ATCC 13709 [2]): 128 µg/mL
- Antibacterial activity (in words, from Table 1) (S. aureus ATCC 13709 [2]): near complete loss of activity
- Minimum inhibitory concentration, ATCC 13709 + 50% Human Serum (S. aureus ATCC 13709 [3]; 50% Human Serum): 16 µg/mL
- Minimum inhibitory concentration, ATCC 13709 + 50% Mouse Serum (S. aureus ATCC 13709 [3]; 50% Mouse Serum): 2 µg/mL
- Minimum inhibitory concentration, ATCC 13709 + 50% Rat Serum (S. aureus ATCC 13709 [3]): 32 µg/mL

Compound: CO[C@H]1/C=C/O[C@@]2(C)Oc3c(C)c(O)c4c(c3C2=O)C2=NC3(CCN(CC(C)C)CC3)NC2=C(NC(=O)/C(C)=C\C=C\[C@H](C)[C@H](OC(=O)CN(C)CC(=O)Nc2ccc(CC(P(=O)(O)O)P(=O)(O)O)cc2)[C@@H](C)[C@@H](O)[C@@H](C)[C@H](OC(C)=O)[C@@H]1C)C4=O [Compound 150]
- Minimum inhibitory concentration, S. aureus ATCC 13709^A [1]: >128 µg/mL
- Minimum inhibitory concentration, S. aureus ATCC 29213 (S. aureus ATCC 29213): 64 µg/mL (≈ 51.6 µM)
- Minimum inhibitory concentration, S. aureus ATCC 13709 (S. aureus ATCC 13709 [2]): 64 µg/mL (≈ 51.6 µM)
- Minimum inhibitory concentration, ATCC 13709 + 50% Human Serum (S. aureus ATCC 13709 [3]): >128 µg/mL
- Minimum inhibitory concentration, ATCC 13709 + 50% Mouse Serum (S. aureus ATCC 13709 [3]; 50% Mouse Serum): 128 µg/mL
- Minimum inhibitory concentration, ATCC 13709 + 50% Rat Serum (S. aureus ATCC 13709 [3]): 16 µg/mL

Compound: CO[C@H]1/C=C/O[C@@]2(C)Oc3c(C)c(O)c4c(c3C2=O)C2=NC3(CCN(CC(C)C)CC3)NC2=C(NC(=O)/C(C)=C\C=C\[C@H](C)[C@H](OC(=O)CNC(=O)CCCNC(=O)NC(P(=O)(O)O)P(=O)(O)O)[C@@H](C)[C@@H](O)[C@@H](C)[C@H](OC(C)=O)[C@@H]1C)C4=O.N.N [Compound 155]
- Minimum inhibitory concentration, S. aureus ATCC 13709^A [1]: >128 µg/mL
- Minimum inhibitory concentration, S. aureus ATCC 29213 (S. aureus ATCC 29213): 128 µg/mL
- Minimum inhibitory concentration, S. aureus ATCC 13709 (S. aureus ATCC 13709 [2]): 32 µg/mL
- Antibacterial activity (in words, from Table 1) (S. aureus ATCC 13709 [2]): near complete loss of activity
- Minimum inhibitory concentration, ATCC 13709 + 50% Mouse Serum (S. aureus ATCC 13709 [3]): >128 µg/mL
- Minimum inhibitory concentration, ATCC 13709 + 50% Human Serum (S. aureus ATCC 13709 [3]; 50% Human Serum): 128 µg/mL
- Minimum inhibitory concentration, ATCC 13709 + 50% Rat Serum (S. aureus ATCC 13709 [3]): 8 µg/mL
